Measurements taken from US4220755A, “Fortimicin B derivatives and process for production thereof” (Abbott Laboratories, priority 1976, dated 1980).
≈ marks a conversion by molar mass, not a printed value. Like-named read-outs stand apart in the source and are kept apart here.

How the values were obtained:
Escherichia coli NIHTC-2 = test: MIC, agar dilution method, pH 7.2; assay type: cell-based
Description: (§1) Measurement was carried out according to the agar dilution method, using a medium of pH 8.0, or the Japanese Antibiotic Medicament Standard, using a medium of pH 7.2 Units are in mcg/ml.

[1] = test system: Eschericihia coli GN2411-5; test: MIC, agar dilution method, pH 7.2; assay type: cell-based; conditions: Escherichia coli
Description: as §1

[2] = test system: Klebsiella pneumoniae KY4274; test: MIC, agar dilution method, pH 7.2; assay type: cell-based
Description: as §1

Proteus vulgaris JJ = test: MIC, agar dilution method, pH 7.2; assay type: cell-based
Description: as §1

[3] = test system: Pseudomonas aeruginosa BMH# 1; test: MIC, agar dilution method, pH 7.2; assay type: cell-based
Description: as §1

[4] = test system: Pseudomonas aeruginosa UCLA 4184; test: MIC, agar dilution method, pH 7.2; assay type: cell-based
Description: as §1

[5] = test system: Salmonella enteritidis G-14; test: MIC, agar dilution method, pH 7.2; assay type: cell-based; conditions: Salmonella enterica
Description: as §1

Shigella sonnei ATCC9290 = test: MIC, agar dilution method, pH 7.2; assay type: cell-based; conditions: read-out: Minimum inhibition concentration (MIC)
Description: as §1

[6] = test system: Staphylococcus aureus 209-P; test: MIC, agar dilution method, pH 7.2; assay type: cell-based
Description: as §1

[7] = test system: Staphylococcus aureus Smith (A); test: MIC, agar dilution method, pH 7.2; assay type: cell-based
Description: as §1

[8] = test system: Staphylococcus a ureus 226; test: MIC, agar dilution method, pH 7.2; assay type: cell-based, Staphylococcus aureus
Description: as §1

Eschericihia coli 3100 = test: MIC, agar dilution method, pH 7.2; assay type: cell-based, Escherichia coli
Description: as §1

[9] = test system: Escherichia coli 57R/W677; test: MIC, agar dilution method, pH 7.2; assay type: cell-based; conditions: 57R/W677, pH 7.2, read-out: Minimum inhibition concentration (MIC)
Description: as §1
(§2) **1: gentamicin, producing adenylsynthetase.

Escherichia coli 76-2 = test: MIC, agar dilution method, pH 7.2; assay type: cell-based
Description: as §1, §2

[10] = test system: Escherichia coli R12 Z-338; test: MIC, agar dilution method, pH 7.2; assay type: cell-based
Description: as §1, §2

[11] = test system: Klebsiella pneumoniae 3020 Y-60; test: MIC, agar dilution method, pH 7.2; assay type: cell-based
Description: as §1, §2

[12] = test system: Escherichia coli R18 KY8321; test: MIC, agar dilution method, pH 7.2; assay type: cell-based; conditions: R18KY8321, E. coli R18 KY8321, 2**: gentamicin, producing adenylsynthetase and neomycin phosphotransferase type II, read-out: Minimum inhibition concentration (MIC)
Description: as §1
2: gentamicin, producing adenylsynthetase and neomycin phosphotransferase

[13] = test system: Escherichia coli R17 Z343; test: MIC, agar dilution method, pH 7.2; assay type: cell-based
Description: as §1
(§3) 3: kanamycin, producing acetyltransferase.

[14] = test system: Pseudomonas aeruginosa R9 KY8516; test: MIC, agar dilution method, pH 7.2; assay type: cell-based
Description: as §1, §3

Serratia marcescens 1065 = test: MIC, agar dilution method, pH 7.2; assay type: cell-based
Description: as §1, §3

[15] = test system: Escherichia coli R20 KY8349; test: MIC, agar dilution method, pH 7.2; assay type: cell-based; conditions: R20KY8349, pH 7.2, E. coli R20 KY8349, 5**: neomycin, producing phosphotransferase type I, read-out: Minimum inhibition concentration (MIC)
Description: as §1
5: neomycin, producing phosphotransferase type I.

[16] = test system: Pseudomonas aeruginosa R5 KY8512; test: MIC, agar dilution method, pH 7.2; assay type: cell-based
Description: as §1
6: neomycin, producing phosphotransferase type I and type II.

Providencia sp 164 = test: MIC, agar dilution method, pH 7.2; assay type: cell-based
Description: as §1
7: gentamicin, producing acetyltransferase type II.

[17] = test system: Staphylococcus aureus KY4279 ATCC6538P; test: MIC, agar dilution method, pH 8.0; assay type: cell-based; conditions: pH 8.0, Staphylococcus aureus KY4279, read-out: Minimum inhibition concentration (MIC), SA
Description: as §1
S.A.: Staphylococcus aureus KY4279 ATCC6538P

[18] = test system: Eschericia coli KY4271 ATCC26; test: MIC, agar dilution method, pH 8.0; assay type: cell-based; conditions: Escherichia coli, ATCC26; pH 8.0; E. coli KY4271; read-out: Minimum inhibition concentration (MIC), EC
Description: as §1
E.C.: Eschericia coli KY4271 ATCC26

[19] = test system: Proteus vulgaris KY4277 ATCC6897; test: MIC, agar dilution method, pH 8.0; assay type: cell-based; conditions: ATCC6897; pH 8.0; Proteus vulgaris KY4277; read-out: Minimum inhibition concentration (MIC), PV
Description: as §1

[20] = test system: Shigella sonnei KY4281 ATCC9290; test: MIC, agar dilution method, pH 8.0; assay type: cell-based; conditions: ATCC9290; pH 8.0; Shigella sonnei KY4281; read-out: Minimum inhibition concentration (MIC), SS
Description: as §1

[21] = test system: Klebsiella pneumoniae KY4275 ATCC10031; test: MIC, agar dilution method, pH 8.0; assay type: cell-based
Description: as §1
K.P.: Klebsiella pneumoniae KY4275 ATCC10031.

SMILES: CO[C@H]1[C@@H](O)[C@H](N)[C@@H](O[C@H]2O[C@H]([C@H](C)N)CC[C@H]2N)[C@H](O)[C@@H]1N(C)C(=O)CN [Compound 2, 4-N-glycylfortimicin B, reference compound]
- MIC (Escherichia coli NIHTC-2; Escherichia coli, NIHTC2, pH 7.2, read-out: Minimum inhibition concentration (MIC)): 3.12 µg/mL (≈ 7.69 µM)
- MIC ([1]; GN2411, pH 7.2, read-out: Minimum inhibition concentration (MIC)): 6.25 µg/mL (≈ 15.4 µM)
- MIC ([2]; Klebsiella pneumoniae, KY4274, pH 7.2, read-out: Minimum inhibition concentration (MIC)): 3.12 µg/mL (≈ 7.69 µM)
- MIC (Proteus vulgaris JJ; Proteus vulgaris, pH 7.2, read-out: Minimum inhibition concentration (MIC)): 3.12 µg/mL (≈ 7.69 µM)
- MIC ([3]; Pseudomonas aeruginosa, pH 7.2, read-out: Minimum inhibition concentration (MIC)): 12.5 µg/mL (≈ 30.8 µM)
- MIC ([4]; Pseudomonas aeruginosa, UCLA4184, pH 7.2, read-out: Minimum inhibition concentration (MIC)): 25 µg/mL (≈ 61.7 µM)
- MIC ([5]; ENTERITIDIS, pH 7.2, read-out: Minimum inhibition concentration (MIC)): 6.25 µg/mL (≈ 15.4 µM)
- MIC (Shigella sonnei ATCC9290): 6.25 µg/mL (≈ 15.4 µM)
- MIC ([6]; Staphylococcus aureus, 209P, pH 7.2, read-out: Minimum inhibition concentration (MIC)): 0.78 µg/mL (≈ 1.92 µM)
- MIC ([7]; Staphylococcus aureus, pH 7.2, read-out: Minimum inhibition concentration (MIC)): 0.78 µg/mL (≈ 1.92 µM)
- MIC ([8]; pH 7.2, read-out: Minimum inhibition concentration (MIC)): 0.78 µg/mL (≈ 1.92 µM)
- MIC (Eschericihia coli 3100; Escherichia coli, 3100, pH 7.2, read-out: Minimum inhibition concentration (MIC)): 6.25 µg/mL (≈ 15.4 µM)
- MIC [9]: 12.5 µg/mL (≈ 30.8 µM)
- MIC (Escherichia coli 76-2; Escherichia coli, 762, pH 7.2, read-out: Minimum inhibition concentration (MIC)): 3.12 µg/mL (≈ 7.69 µM)
- MIC ([10]; R12Z338, pH 7.2, read-out: Minimum inhibition concentration (MIC)): 12.5 µg/mL (≈ 30.8 µM)
- MIC ([11]; Klebsiella pneumoniae, 3020Y60, pH 7.2, read-out: Minimum inhibition concentration (MIC)): 12.5 µg/mL (≈ 30.8 µM)
- MIC [12]: 3.12 µg/mL (≈ 7.69 µM)
- MIC ([13]; R17Z343, pH 7.2, read-out: Minimum inhibition concentration (MIC)): 1.56 µg/mL (≈ 3.85 µM)
- MIC ([14]; R9KY8516, pH 7.2, read-out: Minimum inhibition concentration (MIC)): 50 µg/mL (≈ 123 µM)
- MIC (Serratia marcescens 1065; Serratia marcescens, 1065, pH 7.2, read-out: Minimum inhibition concentration (MIC)): 6.25 µg/mL (≈ 15.4 µM)
- MIC [15]: 3.12 µg/mL (≈ 7.69 µM)
- MIC ([16]; R5KY8512, pH 7.2, read-out: Minimum inhibition concentration (MIC)): 12.5 µg/mL (≈ 30.8 µM)
- MIC (Providencia sp 164; Providencia, 164, pH 7.2, read-out: Minimum inhibition concentration (MIC)): 25 µg/mL (≈ 61.7 µM)
- MIC [17]: 0.04 µg/mL (≈ 0.0986 µM)
- MIC [18]: 0.16 µg/mL (≈ 0.395 µM)
- MIC [19]: 0.32 µg/mL (≈ 0.789 µM)
- MIC [20]: 0.63 µg/mL (≈ 1.55 µM)
- MIC ([21]; Klebsiella pneumoniae, ATCC10031, pH 8, read-out: Minimum inhibition concentration (MIC), KP): 0.16 µg/mL (≈ 0.395 µM)

SMILES: CO[C@H]1[C@@H](O)[C@H](N)[C@@H](O[C@H]2O[C@H]([C@H](C)N)CC[C@H]2N)[C@H](O)[C@@H]1N(C)C(=O)CNC(N)=O [Compound 3, 4-N-hydantoylfortimicin B, reference compound]
- MIC (Escherichia coli NIHTC-2; NIHTC2, pH 7.2, Escherichia coli NIHTC-2, read-out: Minimum inhibition concentration (MIC)): 12.5 µg/mL (≈ 27.9 µM)
- MIC ([1]; pH 7.2, E. coli GN2411-5, read-out: Minimum inhibition concentration (MIC)): 25 µg/mL (≈ 55.7 µM)
- MIC ([2]; pH 7.2, Klebsiella pneumoniae KY4274, read-out: Minimum inhibition concentration (MIC)): 12.5 µg/mL (≈ 27.9 µM)
- MIC (Proteus vulgaris JJ; pH 7.2, Proteus vulgaris JJ, read-out: Minimum inhibition concentration (MIC)): 12.5 µg/mL (≈ 27.9 µM)
- MIC ([3]; pH 7.2, Pseudomonas aeruginosa BMH# 1, read-out: Minimum inhibition concentration (MIC)): 100 µg/mL (≈ 223 µM)
- MIC ([4]; UCLA4184, pH 7.2, Pseudomonas aeruginosa UCLA 4184, read-out: Minimum inhibition concentration (MIC)): 50 µg/mL (≈ 111 µM)
- MIC ([5]; pH 7.2, Salmonella enteritidis G-14, read-out: Minimum inhibition concentration (MIC)): 25 µg/mL (≈ 55.7 µM)
- MIC (Shigella sonnei ATCC9290): 25 µg/mL (≈ 55.7 µM)
- MIC ([6]; pH 7.2, Staphylococcus aureus 209-P, read-out: Minimum inhibition concentration (MIC)): 3.12 µg/mL (≈ 6.96 µM)
- MIC ([7]; pH 7.2, Staphylococcus aureus Smith (A), read-out: Minimum inhibition concentration (MIC)): 6.25 µg/mL (≈ 13.9 µM)
- MIC ([8]; pH 7.2, Staphylococcus aureus 226, read-out: Minimum inhibition concentration (MIC)): 6.25 µg/mL (≈ 13.9 µM)
- MIC (Eschericihia coli 3100; Escherichia coli, pH 7.2, E. coli 3100, read-out: Minimum inhibition concentration (MIC)): 12.5 µg/mL (≈ 27.9 µM)
- MIC [9]: 25 µg/mL (≈ 55.7 µM)
- MIC (Escherichia coli 76-2; Escherichia coli, 762, pH 7.2, E. coli 76-2, 1**: gentamicin, producing adenylsynthetase, read-out: Minimum inhibition concentration (MIC)): 12.5 µg/mL (≈ 27.9 µM)
- MIC ([10]; R12Z338, pH 7.2, E. coli R12 Z-338, 1**: gentamicin, producing adenylsynthetase, read-out: Minimum inhibition concentration (MIC)): 6.25 µg/mL (≈ 13.9 µM)
- MIC ([11]; 3020Y60, pH 7.2, Klebsiella pneumoniae 3020 Y-60, 1**: gentamicin, producing adenylsynthetase, read-out: Minimum inhibition concentration (MIC)): 100 µg/mL (≈ 223 µM)
- MIC [12]: 6.25 µg/mL (≈ 13.9 µM)
- MIC ([13]; R17Z343, pH 7.2, E. coli R17 Z343, 3**: kanamycin, producing acetyltransferase, read-out: Minimum inhibition concentration (MIC)): 3.12 µg/mL (≈ 6.96 µM)
- MIC ([14]; R9KY8516, pH 7.2, P. aeruginosa R9 KY8516, 3**: kanamycin, producing acetyltransferase, read-out: Minimum inhibition concentration (MIC)): > 100 µg/mL
- MIC (Serratia marcescens 1065; pH 7.2, Serratia marcescens 1065, 3**: kanamycin, producing acetyltransferase, read-out: Minimum inhibition concentration (MIC)): 50 µg/mL (≈ 111 µM)
- MIC [15]: 12.5 µg/mL (≈ 27.9 µM)
- MIC ([16]; R5KY8512, pH 7.2, P. aeruginosa R5 KY8512, 6**: neomycin, producing phosphotransferase type I and type II, read-out: Minimum inhibition concentration (MIC)): 50 µg/mL (≈ 111 µM)
- MIC (Providencia sp 164; pH 7.2, Providencia sp 164, 7**: gentamicin, producing acetyltransferase type II, read-out: Minimum inhibition concentration (MIC)): 100 µg/mL (≈ 223 µM)
- MIC [17]: 0.16 µg/mL (≈ 0.357 µM)
- MIC [18]: 0.08 µg/mL (≈ 0.178 µM)
- MIC [19]: 0.63 µg/mL (≈ 1.4 µM)
- MIC [20]: 1.25 µg/mL (≈ 2.79 µM)
- MIC ([21]; ATCC10031, pH 8.0, Klebsiella pneumoniae KY4275, read-out: Minimum inhibition concentration (MIC), KP): 0.63 µg/mL (≈ 1.4 µM)
